Test results taken from patent US11578055B2, “Triazacyclododecansulfonamide (“TCD”)-based protein secretion inhibitors” (KEZAR LIFE SCIENCES, priority 2018, dated 2023).
Like-named read-outs stand apart in the source and are kept apart here.

Tests used:
[1] = tested on: Human PBMC; experiment: Human PBMC CellTiter-Glo viability; format: cell-based; settings: no stimulation, 24 hours
Description: (§1) Human PBMC were freshly isolated from whole blood collections of 3 normal donors utilizing density gradient centrifugation followed by red blood cell lysis. PBMC from each donor were assayed separately. Cells were suspended in RPMI 1640 media supplemented with 5% fetal bovine serum, 2 mM L-glutamine, 10 mM HEPES, and 1× penicillin/streptomycin. PBMC were seeded at 200,000 cells/well in 96-well round-bottom plates either without stimulation or with stimulation by lipopolysaccharide (LPS, 1 μg/mL) or antibodies against human CD3 (plate-bound, 2 μg/mL) and human CD28 (soluble, 2 μg/mL). Serial dilutions of compound in DMSO/media were simultaneously added and PBMC were incubated at 37° C., 5% CO2 for 24 hours. After 24 hours, plates were centrifuged and half of the supernatant volume removed for cytokine analysis by electrochemiluminescent immunoassay (U-PLEX® Biomarker Multiplex, Meso Scale Discovery). For viability analysis, CellTiter-Glo® (Promega) was added to the remaining material in each well and quantified via luminescent plate reader.

[2] = tested on: IL-23; experiment: Human PBMC Cytokine Assay: IL-23; format: cell-based; settings: LPS stimulation, 24 hours
Description: as §1

[3] = tested on: TNFα; experiment: Human PBMC Cytokine Assay: TNFα; format: cell-based; settings: anti-CD3/CD28 stimulation, 24 hours
Description: as §1

[4] = tested on: IFNγ; experiment: Human PBMC Cytokine Assay: IFNγ; format: cell-based; settings: anti-CD3/CD28 stimulation, 24 hours
Description: as §1

[5] = tested on: IL-1β; experiment: Human PBMC Cytokine Assay: IL-1β; format: cell-based; settings: LPS stimulation, 24 hours
Description: as §1

[6] = tested on: target signal sequences plus 10 amino acids fused to Gaussia Luciferase; experiment: Transiently Expressed Dox Induced Signal Sequence-Gluc Assay; format: cell-based; settings: read-out: Signal Sequence-Gluc potency
Description: FIp-In 293 T-REx™ cells were transfected with 500 ng pcDNA™5/FRT/TO plasmids inserted with cDNA encoding Gaussia Luciferase fused to the 3′ end of cDNA encoding target signal sequences plus 10 amino acids. Transfected cells were incubated overnight then cells were trypsinized and plated in 384-well tissue culture plates. The next day, compound dilutions in DMSO/media containing doxycycline were added to the wells and incubated at 37° C., 5% CO2.

[7] = In Vitro Microsome Stability Assay (human); format: in vitro ADME
How it was run: (§2)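 Species liver microsomes in potassium phosphate buffer were preincubated at 37 °C for 3–5 min with test compound (added from 0.25 mM DMSO stock), then started with NADPH. Samples at 0 and 30 min were quenched with acetonitrile containing internal standard and analysed by LC-MS/MS; % remaining at 30 min used analyte/IS AUC ratios relative to t=0.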

[8] = tested on: PD1 signal sequence plus 10 amino acids fused to Gaussia Luciferase (PD1-ss+10aa/Gaussia Luciferase); experiment: Dox Induced PD1-ss-Gluc Assay; format: cell-based; settings: 24 hr, read-out: 24 hr Dox Inducible PD1ssGluc 293FRT/TO: Mean IC50
How it was run: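 Stable Flp-In 293 T-REx line expressing the fusion under tetracycline-inducible control, plated the day before assay. Compound dilutions added with doxycycline and incubated at 37 °C, 5% CO2; unspecified stereocentres mean data refer to stereoisomer mixtures.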

[9] = tested on: GM-CSF; experiment: Human PBMC Cytokine Assay: GM-CSF; format: cell-based; settings: anti-CD3/CD28 stimulation, 24 hours
Description: as §1

[10] = In Vitro Microsome Stability Assay (mouse); format: in vitro ADME
How it was run: as §2

[11] = tested on: IL-2; experiment: Human PBMC Cytokine Assay: IL-2; format: cell-based; settings: anti-CD3/CD28 stimulation, 24 hours
Description: as §1

[12] = In Vitro Microsome Stability Assay (rat); format: in vitro ADME
How it was run: as §2

[13] = tested on: IL-6; experiment: Human PBMC Cytokine Assay: IL-6; format: cell-based; settings: LPS stimulation, 24 hours
Description: as §1

[14] = Target ADAM10 signal peptide +10 amino acids
[15] = Target B7H3 signal peptide +10 amino acids
[16] = Target CD73 signal peptide +10 amino acids
[17] = Target CD96 signal peptide +10 amino acids
[18] = Target CTLA-4 signal peptide +10 amino acids
[19] = Target EGFR signal peptide +10 amino acids
[20] = Target GP130 signal peptide +10 amino acids
[21] = Target HER3 signal peptide +10 amino acids
[22] = Target IFN-a1 signal peptide +10 amino acids
[23] = Target IFN-a2 signal peptide +10 amino acids
[24] = Target IFN-a4 signal peptide +10 amino acids
[25] = Target IFN-b signal peptide +10 amino acids
[26] = Target IFNAR1 signal peptide +10 amino acids
[27] = Target IFNAR2 signal peptide +10 amino acids
[28] = Target IL-1R1 signal peptide +10 amino acids
[29] = Target IL-1R2 signal peptide +10 amino acids
[30] = Target IL-1Ra (isoform 1) signal peptide +10 amino acids
[31] = Target IL-2Ra (CD25) signal peptide +10 amino acids
[32] = Target IL-6R signal peptide +10 amino acids
[33] = Target IL-6 signal peptide +10 amino acids
[34] = Target IL-7R signal peptide +10 amino acids
[35] = Target IL-12b (p40) signal peptide +10 amino acids
[36] = Target IL-17Ra signal peptide +10 amino acids
[37] = Target IL-17a signal peptide +10 amino acids
[38] = Target IL-23R signal peptide +10 amino acids
[39] = Target IL-23a signal peptide +10 amino acids
[40] = Target LAG3 signal peptide +10 amino acids
[41] = Target PD-L1 signal peptide +10 amino acids
[42] = Target PDGFRa signal peptide +10 amino acids
[43] = Target TACE (ADAM17) signal peptide +10 amino acids
[44] = Target TIGIT signal peptide +10 amino acids
[45] = Target TIM3 signal peptide +10 amino acids
[46] = Target TNFR1 signal peptide +10 amino acids
[47] = Target TNFR2 signal peptide +10 amino acids
[48] = Target VEGF signal peptide +10 amino acids
[49] = Target VGFR2 signal peptide +10 amino acids
[50] = Target VISTA signal peptide +10 amino acids

C[C@H]1CN(S(=O)(=O)c2ccc(N(C)C)cc2)CCCN(CC2CCCCC2)CCCN(S(=O)(=O)N2CCc3cc(Cl)ccc3C2)C1 [A87]
IC50 [1]: > 25000 nM | IC50 [2]: 200 nM | IC50 [3]: 82 nM | IC50 [4]: 152 nM | IC50 [5]: > 25000 nM | IC50 [6, 14]: 231 nM | IC50 [6, 15]: 27 nM | IC50 [6, 16]: 58 nM | IC50 [6, 17]: 12 nM | IC50 [6, 18]: 259 nM | IC50 [6, 19]: 60 nM | IC50 [6, 20]: 201 nM | IC50 [6, 21]: 89 nM | IC50 [6, 22]: 128 nM | IC50 [6, 23]: 51 nM | IC50 [6, 24]: 221 nM | IC50 [6, 25]: 818 nM | IC50 [6, 26]: 14 nM | IC50 [6, 27]: 133 nM | IC50 [6, 28]: 374 nM | IC50 [6, 29]: 23 nM | IC50 [6, 30]: 111 nM | IC50 [6, 31]: 159 nM | IC50 [6, 32]: 78 nM | IC50 [6, 33]: 66 nM | IC50 [6, 34]: 58 nM | IC50 [6, 35]: 155 nM | IC50 [6, 36]: 424 nM | IC50 [6, 37]: 447 nM | IC50 [6, 38]: 111 nM | IC50 [6, 39]: 567 nM | IC50 [6, 40]: 75 nM | IC50 [6, 41]: 56 nM | IC50 [6, 42]: 90 nM | IC50 [6, 43]: 66 nM | IC50 [6, 44]: 162 nM | IC50 [6, 45]: 282 nM | IC50 [6, 46]: 307 nM | IC50 [6, 47]: 564 nM | IC50 [6, 48]: 111 nM | IC50 [6, 49]: 684 nM | IC50 [6, 50]: 211 nM | Liver Microsome Stability-% Left after 30 min w/ NADPH (%) Human ([7]; human, 30 min, NADPH): 39.7% | IC50 ([8]; 293FRT/TO): 19.1 nM | IC50 [9]: 165 nM | Liver Microsome Stability-% Left after 30 min w/ NADPH (%) Mouse ([10]; mouse, 30 min, NADPH): 49.6% | IC50 [11]: 31 nM | Liver Microsome Stability-% Left after 30 min w/ NADPH (%) Rat ([12]; rat, 30 min, NADPH): 43.6% | IC50 [13]: 61 nM

COc1cc(F)ccc1N1CCN(S(=O)(=O)N2CCCN(CC3CCCCC3)CCCN(S(=O)(=O)c3ccc(N(C)C)cc3)C[C@H](C)C2)CC1 [A137]
IC50 [1]: > 25000 nM | IC50 [2]: 79 nM | IC50 [3]: 17 nM | IC50 [4]: 21 nM | IC50 [5]: > 25000 nM | IC50 [6, 14]: 127 nM | IC50 [6, 15]: 9 nM | IC50 [6, 16]: 44 nM | IC50 [6, 17]: 7 nM | IC50 [6, 18]: 112 nM | IC50 [6, 19]: 47 nM | IC50 [6, 20]: 161 nM | IC50 [6, 21]: 57 nM | IC50 [6, 22]: 57 nM | IC50 [6, 23]: 44 nM | IC50 [6, 24]: 89 nM | IC50 [6, 25]: 288 nM | IC50 [6, 26]: 6 nM | IC50 [6, 27]: 42 nM | IC50 [6, 28]: 282 nM | IC50 [6, 29]: 17 nM | IC50 [6, 30]: 47 nM | IC50 [6, 31]: 55 nM | IC50 [6, 32]: 48 nM | IC50 [6, 33]: 38 nM | IC50 [6, 34]: 16 nM | IC50 [6, 35]: 74 nM | IC50 [6, 36]: 176 nM | IC50 [6, 37]: 216 nM | IC50 [6, 38]: 47 nM | IC50 [6, 39]: 223 nM | IC50 [6, 40]: 48 nM | IC50 [6, 41]: 19 nM | IC50 [6, 42]: 37 nM | IC50 [6, 43]: 40 nM | IC50 [6, 44]: 79 nM | IC50 [6, 45]: 132 nM | IC50 [6, 46]: 152 nM | IC50 [6, 47]: 186 nM | IC50 [6, 48]: 51 nM | IC50 [6, 49]: 213 nM | IC50 [6, 50]: 150 nM | Liver Microsome Stability-% Left after 30 min w/ NADPH (%) Human ([7]; human liver microsomes, 30 min w/ NADPH): 48.8% | IC50 ([8]; Dox inducible, 293FRT/TO cells): 8.3 nM | IC50 [9]: 25 nM | Liver Microsome Stability-% Left after 30 min w/ NADPH (%) Mouse ([10]; mouse liver microsomes, 30 min w/ NADPH): 28% | IC50 [11]: 8 nM | Liver Microsome Stability-% Left after 30 min w/ NADPH (%) Rat ([12]; rat liver microsomes, 30 min w/ NADPH): 31.6% | IC50 [13]: 12 nM
